From patent US20210401867A1, “PHOTOSENSITIZERS AND METHOD OF TREATING CANCER USING THE SAME” (Cheng-Wen Wu, priority 2018, published 2021)

Assays:
FaDu cells = assay: comet assay for DNA damage in FaDu cells; format: cell-based, human; conditions: 1 μM BrdU with 1 Gy of 14 keV NR, versus BrdU-RS2000 or RS2000
Experimental: Referring to FIGS. 22A and 22B, comet assays for evaluating DNA damages induced by BrdU, RS2000, BrdU with RS2000, NR, and NR with BrdU are provided in accordance with an exemplary embodiment of the present disclosure. Comet assays are commonly used to measure DNA single-strand breaks […] and double-strand breaks (DSBs). FaDu cells (10^4 cells/10 μl of PBS) are mixed with 75 μl of 0.75% low-melting agarose. The mixture is then immediately embedded onto a glass slide pre-coated with 2 layers of 1% agarose, and spread evenly with a coverslip. The mixture on the glass slide is solidified on ice for 5 minutes. 2 additional layers of 1% agarose are then coated on the cell layer. The cell is then soaked with cell lysis buffer (10 mM Tris, 2.5 M NaCl, 100 mM Na2-EDTA, and 1% Triton X-100, pH 10.0) at 4° C. for 1 hour. The slide is then placed horizontally in an electrophoretic apparatus with alkaline electrophoretic buffer ([…] and 1 mM Na2-EDTA, pH >12.0) for 60 minutes, and then electrophoresis is conducted in the apparatus for 30 minutes at 25 V and 300 mA. After the electrophoresis has ended, the slide is soaked with neutralization buffer (0.4 M Tris, pH 7.4) for 10 minutes. The cells on the slide are stained with propidium iodide (PI) of 20 μg/ml and subjected to microscopic examination. […] FIG. 22B is a quantified result of FIG. 22A. […]

[1] = tested on: subcutaneous malignant solid tumor comprised of FaDu cells; assay: in vivo tumor growth of subcutaneous FaDu solid tumor on tumorigenic mice; conditions: for tumor growth inhibition rate: end of the in vivo test; for relative proliferation rate of solid tumor: repeated after 7 days
Experimental: FIG. 12 is a schematic diagram of an in vivo animal experiment, in accordance with an exemplary embodiment of the present disclosure. A subcutaneous malignant solid tumor comprised of FaDu cells (tumor size is about 200 mm^3) on the tumorigenic mice is injected with 0.5 μg/μl of IdU. 4 hours after the injection, the solid tumor is then irradiated by 4 Gy 33 keV NR. The IdU-NR treatment are repeated on the same tumor after 7 days. Other groups of mouse are only injected with 50 μg of IdU or only irradiated with 4 Gy 33 keV NR, and the IdU injection or the NR irradiation is repeated on the same tumor after 7 days. The control group is the mice without NR, IdU, or IdU-NR treatment.
The subcutaneous malignant solid tumor comprised of FaDu cells on the tumorigenic mice is treated with IdU, NR, or IdU and NR, following the same experiment procedure as depicted in FIG. 12. The relative proliferation rates of the solid tumors are calculated by measuring the size of the solid tumor on Days 3, 7, 10, 14, 17, 21, 24, and 28, respectively. […] The solid tumor of IdU-NR group has the lowest relative proliferation rate among other groups, and the relative proliferation rate of IdU-NR group is even lower than 100% (p<0.05), this indicates the tumor size is smaller after the IdU and NR treatment.
To further investigate a therapeutically effective dosage for the combination of IdU and NR, another series of in vivo experiments are conducted, see FIGS. 15A-15F. The experiment procedure is the same with the procedure described in FIG. 12. FIG. 15A and FIG. 15B show cells irradiated with 2.25 Gy NR and 2.25 Gy RS2000, FIG. 15C and FIG. 15D show cells irradiated with 4.5 Gy NR and 4.5 Gy RS2000, and FIG. 15E and FIG. 15F show cells irradiated with 9 Gy NR and 9 Gy RS2000, in accordance with exemplary embodiments of the present disclosure. Control groups in FIGS. 15A-15F are FaDu cells isolated from the subcutaneous solid tumor of the tumorigenic mouse without treatment of IdU or any radiation. The tumor growth index in FIGS. 15A-15F are calculated based on tumor volumes: for each of the tumorigenic mouse, the tumor volume on Day 0 is set as 100%, and relative volume percentages in the following days relative to Day 0 are presented as the tumor growth index (%).

| Structure (SMILES) | relative DNA tail movement (comet assay) (FaDu cells) | tumor growth inhibition rate ([1]; IdU 50 μg and 4.5 Gy NR) | tumor growth inhibition rate ([1]; IdU 50 μg and 9 Gy NR) | tumor growth versus RS2000 only ([1]; IdU 50 μg and RS2000 (2.25, 4.5, 9 Gy)) | relative proliferation rate of solid tumor ([1]; IdU-NR group, 0.5 μg/μl IdU plus 4 Gy 33 keV NR, p<0.05) | relative proliferation rate of solid tumor ([1]; IdU-only group, 50 μg of IdU, to Day 28) | tumor growth (tumor growth index) ([1]; treated only with IdU, 50 μg) |
| --- | --- | --- | --- | --- | --- | --- | --- |
| O=c1[nH]c(=O)n([C@H]2C[C@H](O)[C@@H](CO)O2)cc1Br [BrdU, bromodeoxyuridine] | largest relative DNA tail movements | – | – | – | – | – | – |
| O=c1[nH]c(=O)n([C@H]2C[C@H](O)[C@@H](CO)O2)cc1I [IdU, iododeoxyuridine] | – | 68% | 83% | does not significantly inhibit the tumor growth | lower than 100% | lower relative proliferation rate than the control group | not inhibited |
